Assay results published in ChEMBL document CHEMBL4477198, “Metabolites from the Fungal Endophyte Aspergillus austroafricanus in Axenic Culture and in Fungal-Bacterial Mixed Cultures” (J Nat Prod, 2016).
pEC50: −log10 of the molar value. The source made the active and inactive calls. The rule behind the calls is not given here.

Legend:
Staphylococcus aureus = test: Antibacterial activity against Staphylococcus aureus ATCC 700699 by broth microdilution method; assay type: functional
[1] = test system: Mycobacterium tuberculosis; test: Antibacterial activity against Mycobacterium tuberculosis H37Rv by broth microdilution method; assay type: functional
Bacillus subtilis = test: Antibacterial activity against Bacillus subtilis 168 trpC2 by broth microdilution method; assay type: functional
L5178Y = test: Cytotoxicity against mouse L5178Y cells by MTT assay; assay type: functional, cell-based

SMILES | Activity [1] | further results
Cc1cc(O)c(Oc2cc(C)cc(O)c2O)c(O)c1 | inactive | MIC (Staphylococcus aureus): 25 µM
Cc1cc(O)c(O)c(Oc2cc(C)cc(O)c2O)c1 | inactive | MIC (Staphylococcus aureus): 25 µM
CC(C)(O)CCC[C@](C)(O)c1ccc(C(=O)O)cc1 | inactive | 
O=c1cc(CO)c(O)co1 | inactive | 
CC1(C)CCC[C@](C)(c2ccc(C(=O)O)cc2O)O1 | inactive | 
O=C(O)c1cn(C2CC2)c2cc(N3CCNCC3)c(F)cc2c1=O [CIPROFLOXACIN] |  | MIC (Bacillus subtilis): 0.008 µg/mL
C=CC(C)(C)[C@@]12C=C(OC)C(=O)N3/C(=C/c4c[nH]cn4)C(=O)N[C@]31N(OC)c1ccccc12 | inactive | 
COc1c(O)c(O)c(O)c2oc3c(Oc4c(O)cc(C)c5c(=O)c6c(O)cc(CO)cc6oc45)c(O)cc(C)c3c(=O)c12 | inactive | 
COc1c(N2C[C@@H]3CCCN[C@@H]3C2)c(F)cc2c(=O)c(C(=O)O)cn(C3CC3)c12 [MOXIFLOXACIN] |  | MIC (Staphylococcus aureus): 1.56 µg/mL
Cc1cc(O)cc(Oc2cc(C)c(C(N)=O)c(O)c2)c1 | inactive | 
COC(=O)c1c(O)ccc2oc3cc(CO)cc(O)c3c(=O)c12 | inactive | 
Cc1cc(O)cc(Oc2cc(C)cc(O)c2)c1 [DIORCINOL] | inactive | MIC (Bacillus subtilis): 34.8 µM
CC(C)[C@@H](C)/C=C/[C@@H](C)[C@H]1CC[C@H]2C3=CC=C4C[C@@H](O)CC[C@]4(C)[C@H]3CC[C@]12C [ERGOSTEROL] | inactive | pEC50 (L5178Y): 4.90
